In ChEMBL document CHEMBL1134701, “Atropisomeric quinazolin-4-one derivatives are potent noncompetitive alpha-amino-3-hydroxy-5-methyl-4-isoxazolepropionic acid (AMPA) receptor antagonists” (Bioorg Med Chem Lett, 2001):

Experiments:
[1] = molecular target: T1, Glutamate receptor ionotropic, AMPA (Rattus norvegicus, UniProt P19490+P19491+P19492+P19493); assay: Ability to block kainate-induced 45 [Ca2+] influx through functional assay of Ionotropic glutamate receptor AMPA activity in rat cerebellar granule cells
[2] = molecular target: T1, Glutamate receptor ionotropic, AMPA; assay: Ability to block kainate-induced 45 [Ca2+] influx through functional assay of Ionotropic glutamate receptor AMPA activity in rat cerebellar granule cells.
Mus musculus [3] = assay: Blockade of ivc AMPA induced seizures in mice on subcutaneous administration (95%CI); type: functional
Mus musculus [4] = assay: Blockade of pentylenetetrazole induced seizures in mice on subcutaneous administration (95% CI); type: functional
Mus musculus [5] = assay: Minimum effective dose in mice on subcutaneous administration; type: functional
Mus musculus [6] = assay: Blockade of pentylenetetrazole induced seizures in mice on subcutaneous administration; type: functional; conditions: sc, read-out: ID50 (the source's name)
[7] = molecular target: T1, Glutamate receptor ionotropic, AMPA; assay: Evaluated in patch clamp electrophysiology study for its selectively evoked Ionotropic glutamate receptor AMPA mediated inward currents.
Rattus norvegicus [8] = species on record: Rattus norvegicus; assay: Evaluated in patch clamp electrophysiology study for its selectively evoked AMPA and NMDA (glutamate receptors) mediated inward currents reduction; type: functional
Rattus norvegicus [9] = assay: Evaluated in vivo for the reduction in the population spike amplitude in the CA3 region of the hippocampus in anesthetized rat at a dose of 2 mg/kg (iv); type: functional

Compound | IC50 [1] [nM] | other results
Cc1ccc2nc(/C=C/c3ccccn3)n(-c3ccccc3C)c(=O)c2c1 | 1370 | 
NCc1cccc(/C=C/c2nc3ccc(F)cc3c(=O)n2-c2ccccc2Cl)n1 | 340 | 
O=c1c2cc(F)ccc2nc(/C=C/c2ccccn2)n1-c1ccccc1Cl | 96 | 
O=c1c2ccccc2nc(/C=C/c2ccccn2)n1-c1ccccc1F | 116 | 
O=c1c2ccccc2nc(/C=C/c2ccccn2)n1-c1ccccc1C(F)(F)F | 146 | 
COc1cccc2c(=O)n(-c3ccccc3C)c(/C=C/c3ccccn3)nc12 | > 1000 | 
N#Cc1cccc(/C=C/c2nc3ccc(F)cc3c(=O)n2-c2ccccc2Cl)n1 | 244 | 
CN(C)Cc1cccc(/C=C/c2nc3ccc(F)cc3c(=O)n2-c2ccccc2Cl)n1 | 178 | 
CC(C)NCc1cccc(/C=C/c2nc3ccc(F)cc3c(=O)n2-c2ccccc2Cl)n1 | 59 | 
Cc1ccccc1-n1c(/C=C/c2ccccn2)nc2c(Cl)cccc2c1=O | > 1000 | 
O=c1c2ccccc2nc(/C=C/c2ccccn2)n1-c1c(Cl)cccc1Cl | > 1000 | 
Cc1ccccc1-n1c(/C=C/c2ccccn2)nc2ccc(Br)cc2c1=O | 162 | 
CCNCc1cccc(/C=C/c2nc3ccc(F)cc3c(=O)n2-c2ccccc2Cl)n1 | 81 | 
O=c1c2cc(F)ccc2nc(/C=C/c2ccccn2)n1-c1ccccc1F | 180 | 
CCN(CC)Cc1cccc(/C=C/c2nc3ccc(F)cc3c(=O)n2-c2ccccc2Cl)n1 (stereo in doubt; (+)-38) |  | IC50 [2]: 36 nM; ID50 (Mus musculus [3]): 3.1 mg/kg; ID50 (Mus musculus [4]): 1.5 mg/kg; MED (Mus musculus [5]): 5.6 mg/kg
Cc1ccccc1-n1c(/C=C/c2ccccn2)nc2c(Cl)cc(Cl)cc2c1=O | > 1000 | 
O=c1c2cc(F)ccc2nc(/C=C/c2cccc(CO)n2)n1-c1ccccc1Cl | 58 | 
CN(C)CCN(C)Cc1cccc(/C=C/c2nc3ccc(F)cc3c(=O)n2-c2ccccc2Cl)n1 | 150 | 
COCc1cccc(/C=C/c2nc3ccc(F)cc3c(=O)n2-c2ccccc2Cl)n1 | 42 | 
O=c1c2cc(F)ccc2nc(/C=C/c2ccccn2)n1-c1ccccc1Br | 65 | 
O=Cc1cccc(/C=C/c2nc3ccc(F)cc3c(=O)n2-c2ccccc2Cl)n1 | 97 | 
O=c1c2cc(F)ccc2nc(/C=C/c2ccccn2)n1-c1c(F)cccc1F | > 300 | 

Compound | IC50 [1] [nM] | other results
CCOCc1cccc(/C=C/c2nc3ccc(F)cc3c(=O)n2-c2ccccc2Cl)n1 | 82 | 
Cc1ccccc1-n1c(/C=C/c2ccccn2)nc2ccc(Cl)cc2c1=O | 124 | 
COc1cc2nc(/C=C/c3ccccn3)n(-c3ccccc3C)c(=O)c2cc1OC | > 1000 | 
CCN(CC)Cc1cccc(/C=C/c2nc3ccc(F)cc3c(=O)n2-c2ccccc2Cl)n1 (stereo in doubt; (-)-38) |  | IC50 [2]: 0.1 nM; ED50 (Mus musculus [6]): 10 mg/kg
O=c1c2ccccc2nc(/C=C/c2ccccn2)n1-c1ccccc1 | > 1000 | 
COC(=O)c1cccc(/C=C/c2nc3ccc(F)cc3c(=O)n2-c2ccccc2Cl)n1 | 400 | 
Cc1ccccc1-n1c(/C=C/c2ccccn2)nc2ccc(F)cc2c1=O | 248 | 
Cc1cccc(C)c1-n1c(/C=C/c2ccccn2)nc2ccccc2c1=O | > 1000 | 
Cc1ccccc1-n1c(/C=C/c2ccccn2)nc2ccccc2c1=O [PIRIQUALONE] | 460 | 
CNCc1cccc(/C=C/c2nc3ccc(F)cc3c(=O)n2-c2ccccc2Cl)n1 | 103 | 
CC(=O)OCc1cccc(/C=C/c2nc3ccc(F)cc3c(=O)n2-c2ccccc2Cl)n1 | 45 | 
O=c1c2ccccc2nc(/C=C/c2ccccn2)n1-c1ccccc1Br | 102 | 
Cc1cccc(/C=C/c2nc3ccc(F)cc3c(=O)n2-c2ccccc2Cl)n1 | 36 | 
O=c1c2cc(F)ccc2nc(/C=C/c2cccc(CF)n2)n1-c1ccccc1Cl | 56 | 
Cc1ccccc1-n1c(/C=C/c2ccccn2)nc2cc(Cl)ccc2c1=O | > 3000 | 
CCN(CC)Cc1cccc(/C=C/c2nc3ccc(F)cc3c(=O)n2-c2ccccc2Cl)n1 (stereo in doubt; 38) | 74 | IC50 [7]: 25 nM; Reduction (Rattus norvegicus [8]): 36%; Blockade (Rattus norvegicus [9]): 65.1%; ED50 (Mus musculus [3]; Mus musculus, sc, read-out: ID50 (the source's name)): 3.6 mg/kg; ID50 (Mus musculus [4]): 3.8 mg/kg; minimal effective dose (Mus musculus [5]; Mus musculus, sc, read-out: MED): 10 mg/kg
O=c1c2cc(F)ccc2nc(/C=C/c2cccc(N3CCCC3)n2)n1-c1ccccc1Cl | 31 | 
O=c1c2ccccc2nc(/C=C/c2ccccn2)n1-c1ccccc1Cl | 433 | 
COc1cccc(/C=C/c2nc3ccc(F)cc3c(=O)n2-c2ccccc2Cl)n1 | 31 | 
O=c1c2cc(F)ccc2nc(/C=C/c2cccc(N3CCCCC3)n2)n1-c1ccccc1Cl | > 300 | 
COc1ccccc1-n1c(/C=C/c2ccccn2)nc2ccccc2c1=O | 1100 | 
O=C(O)c1cccc(/C=C/c2nc3ccc(F)cc3c(=O)n2-c2ccccc2Cl)n1 | > 1000 | 
